According to article PMC5219024, “New acetylenic derivatives of betulin and betulone, synthesis and cytotoxic activity” (Medicinal Chemistry Research, 2016):
Converted amounts (≈) assume the structure as drawn. Where two headings read alike, the source gives them in different places.

Key:
[1] = system: CCRF/CEM (human leukemia); test: Antiproliferative assay in vitro (MTT), CCRF/CEM; assay type: cell-based; details: for IC50: read-out: Cytotoxic activity IC50, CCRF/CEM
Experimental: (§1) The tested cell lines were obtained from the American Type Culture Collection (Rockville, Maryland, USA) and maintained at the Cell Culture Collection of the Institute of Immunology and Experimental Therapy (Wrocław, Poland). The cells were seeded in 96-well plates (Sarstedt, USA) at a density of 10^4 cells per well in 100 µL of culture medium overnight. […] The normal mouse fibroblasts BALB3T3 was cultured in Dulbecco’s modified Eagle’s medium (Sigma-Aldrich, Chemie GmbH, Steinheim, Germany) supplemented with 2 mM glutamine (Sigma-Aldrich, Chemie GmbH, Steinheim, Germany) and 10 % fetal calf serum FBS (Sigma-Aldrich, Chemie GmbH, Steinheim, Germany). The all culture media were supplemented with streptomycin (100 µg/mL) and penicillin (100 U/mL) (both antibiotics from Polfa, Tarchomin, Poland). The cell cultures were maintained at 37 °C in humid atmosphere saturated with 5 % CO2. The MTT assay was used for the cytotoxicity screening against leukemia cells growing in suspension culture. This assay was performed after 96 h of the leukemia cells to varying concentrations (ranging from 1 to 100 µg/mL) of the tested substances. The derivatives of betulin were dissolved in 10 % DMSO to concentration of 1 mg/mL, and next diluted in culture medium to reach the required concentrations. […] During the last 3–4 h of incubation 20 µl of MTT solution were added to each well (MTT: 3-(4,5-dimethylthiazol-2-yl)-2,5-diphenyl tetrazolium bromide; stock solution: 5 mg/mL). The pale yellow MTT is reduced to a navy blue formazan in the mitochondria of living cells. At the end of incubation time, 80 µL of the lysing mixture was added to each well (lysing mixture: 225 mL dimethylformamide, 67.5 g sodium dodecyl sulfate and 275 mL of distilled water). After 24 h are formed the crystals of formazan, which are insoluble in aqueous solutions. The formazan crystals had been dissolved. The optical densities were read on a Multiskan RC photometer at 570 nm wavelength. The compounds in given concentration were examined in triplicates in each experiment which was repeated 3–5 times. The results of cytotoxic activity in vitro were expressed as an IC50 in µg/mL.

[2] = system: HL-60 (human promyelocytic leukemia); test: Antiproliferative assay in vitro (MTT), HL-60; assay type: cell-based; details: for IC50: Homo sapiens, read-out: Cytotoxic activity IC50, HL-60
Experimental: as §1

[3] = system: T47D (human breast cancer); test: Antiproliferative assay in vitro (SRB), T47D; assay type: cell-based; details: for IC50: read-out: Cytotoxic activity IC50, T47D
Experimental: (§2) The tested cell lines were obtained from the American Type Culture Collection (Rockville, Maryland, USA) and maintained at the Cell Culture Collection of the Institute of Immunology and Experimental Therapy (Wrocław, Poland). The cells were seeded in 96-well plates (Sarstedt, USA) at a density of 10^4 cells per well in 100 µL of culture medium overnight. […] The normal mouse fibroblasts BALB3T3 was cultured in Dulbecco’s modified Eagle’s medium (Sigma-Aldrich, Chemie GmbH, Steinheim, Germany) supplemented with 2 mM glutamine (Sigma-Aldrich, Chemie GmbH, Steinheim, Germany) and 10 % fetal calf serum FBS (Sigma-Aldrich, Chemie GmbH, Steinheim, Germany). The all culture media were supplemented with streptomycin (100 µg/mL) and penicillin (100 U/mL) (both antibiotics from Polfa, Tarchomin, Poland). The cell cultures were maintained at 37 °C in humid atmosphere saturated with 5 % CO2. This technique as first was described by Skehan et al. in [1990]. The SRB assay was performed after 96 h exposure of the cultured cells to varying concentrations (ranging from 1 to 100 µg/mL) of the tested substances. The reported derivatives as well as betulin 1 were dissolved in 10 % dimethyl sulfoxide (DMSO) to concentration of 1 mg/mL, and next diluted in culture medium to reach the required concentrations. […] The cells fastened to the plastic were fixed mildly layering cold 50 % TCA (trichloroacetic acid, Aldrich-Chemie, Germany) on the top of the culture medium in each well. The plates were incubated at 4 °C for 1 h and then washed five times with tap water. The cells fixed with TCA were stained with 0.4 % sulforhodamine B (SRB, Sigma, Germany) dissolved in 1 % acetic acid (POCH, Gliwice, Poland) for 30 min. The unbound dye was removed by rinsing four times with 1 % acetic acid. The protein-bound dye was extracted with 10 mM unbuffered tris base (POCH, Gliwice, Poland) and then determined the optical density at 540 nm in a computer-interfaced, 96-well microtiter plate reader Multiscan RC photometer (Labsystems, Helsinki, Finland). The compounds in given concentration were examined in triplicates in each experiment which was repeated 3–5 times. The results of cytotoxic activity in vitro were expressed as an IC50 in µg/mL.

[4] = Antiproliferative assay in vitro (SRB), BALB3T3; assay type: cell-based, mouse; details: mouse; murine BALB3T3 normal fibroblasts; 96 h exposure; 1 to 100 µg/mL; Neg = negative in the concentration used; read-out: Cytotoxic activity IC50, BALB3T3
Experimental: as §2

SW707 (human colorectal) = test: Antiproliferative assay in vitro (SRB), SW707; assay type: cell-based; details: for Cytotoxic activity IC50, SW707: human SW707, 96 h exposure, 1 to 100 µg/mL, Neg = negative in the concentration used
Experimental: as §2

P388 (mouse leukemia) = test: Antiproliferative assay in vitro (MTT), P388; assay type: cell-based; details: murine P388, 96 h exposure, 1 to 100 µg/mL, Neg = negative in the concentration used; for IC50: Mus musculus, read-out: Cytotoxic activity IC50, P388
Experimental: as §1

[5] = system: BALB3T3 normal mouse fibroblasts; test: Antiproliferative assay in vitro (SRB), BALB3T3; assay type: cell-based; details: murine BALB3T3 normal fibroblasts; 96 h exposure; 1 to 100 µg/mL; Neg = negative in the concentration used
Experimental: as §2

[6] = human CCRF/CEM, 96 h exposure, 1 to 100 µg/mL, Neg = negative in the concentration used
[7] = HL-60 cancer cell line, 96 h exposure
[8] = human T47D, 96 h exposure, 1 to 100 µg/mL, Neg = negative in the concentration used

Row | SMILES | IC50 [2, 7] | Cytotoxic activity IC50, BALB3T3 [5] | Cytotoxic activity IC50, SW707 (SW707 (human colorectal)) | melting point | other results
1 | C=C(C)[C@@H]1CC[C@]2(CO)CC[C@]3(C)[C@H](CC[C@@H]4[C@@]5(C)CC[C@H](O)C(C)(C)[C@@H]5CC[C@]43C)[C@@H]12 [Betulin 1, lup-20(29)-ene-3β,28-diol, reference compound] | – | – | – | – | IC50 ([1]; Homo sapiens, CCRF-CEM, 96 h): 10.9 ± 5.5 µg/mL (≈ 24.6 µM); IC50 ([2]; HL-60, 96 h): 7.2 ± 0.5 µg/mL (≈ 16.3 µM); IC50 ([3]; Homo sapiens, T47D, 96 h): 32.4 ± 10.7 µg/mL (≈ 73.2 µM); IC50 at 96 h [4]: 47.3 ± 7.9 µg/mL (≈ 107 µM); IC50 (SW707 (human colorectal); Homo sapiens, SW707, 96 h, read-out: Cytotoxic activity IC50, SW707): 22.9 ± 15.4 µg/mL (≈ 51.7 µM)
2 | C=C(C)[C@@H]1CC[C@]2(COC(=O)C#CC3CC3)CC[C@]3(C)C(CCC4[C@@]5(C)CC[C@H](O)C(C)(C)C5CC[C@]43C)C12 (some centres unmarked) [Compound 6, 28-O-(3-Cyclopropyl-2-propynoyl)betulin] | 44.8 ± 10.9 µg/mL (≈ 83.8 µM) | Neg | Neg | 108 to 113 °C | IC50 [1, 6]: 16.5 ± 8.5 µg/mL (≈ 30.9 µM); IC50 [3, 8]: 33.6 ± 6.3 µg/mL (≈ 62.8 µM); IC50 (P388 (mouse leukemia)): 8.4 ± 9.2 µg/mL (≈ 15.7 µM)
3 | C=C(C)[C@@H]1CC[C@]2(COC(=O)OCCC)CC[C@]3(C)C(CCC4[C@@]5(C)CC[C@H](O)C(C)(C)C5CC[C@]43C)C12 (some centres unmarked) [Compound 10, 28-O-Propoxycarbonylbetulin] | 26.8 ± 2.5 µg/mL (≈ 50.7 µM) | – | – | – | –
4 | C=CCOC(=O)OC[C@]12CC[C@@H](C(=C)C)C1C1CCC3[C@@]4(C)CC[C@H](O)C(C)(C)C4CC[C@@]3(C)[C@]1(C)CC2 (some centres unmarked) [Compound 11, 28-O-Allyloxycarbonylbetulin] | 14.9 ± 3.9 µg/mL (≈ 28.3 µM) | – | – | – | –
5 | C#CCOC(=O)OC[C@]12CC[C@@H](C(=C)C)C1C1CCC3[C@@]4(C)CC[C@H](O)C(C)(C)C4CC[C@@]3(C)[C@]1(C)CC2 (some centres unmarked) [Compound 12] | 3.7 ± 0.5 µg/mL (≈ 7.05 µM) | – | – | – | –
6 | C=C(C)[C@@H]1CC[C@]2(COC(=O)CC)CC[C@]3(C)C(CCC4[C@@]5(C)CCC(=O)C(C)(C)C5CC[C@]43C)C12 (some centres unmarked) [Compound 15, 28-O-Propanoylbetulone] | 33.7 ± 5.5 µg/mL (≈ 67.8 µM) | – | – | – | –
7 | C=CC(=O)OC[C@]12CC[C@@H](C(=C)C)C1C1CCC3[C@@]4(C)CCC(=O)C(C)(C)C4CC[C@@]3(C)[C@]1(C)CC2 (some centres unmarked) [Compound 16, 28-O-(2-Propenoyl)betulone] | 5 ± 1.3 µg/mL (≈ 10.1 µM) | – | – | – | –
8 | C#CC(=O)OC[C@]12CC[C@@H](C(=C)C)C1C1CCC3[C@@]4(C)CCC(=O)C(C)(C)C4CC[C@@]3(C)[C@]1(C)CC2 (some centres unmarked) [Compound 17, 28-O-Propynoylbetulone] | 0.3 ± 0.06 µg/mL (≈ 0.609 µM) | – | – | 93 to 96 °C | fold potent than betulin 1 against HL-60 ([2]; relative to betulin 1, HL-60): 24 fold
9 | C=C(C)[C@@H]1CC[C@]2(COC(=O)C#CC3CC3)CC[C@]3(C)C(CCC4[C@@]5(C)CCC(=O)C(C)(C)C5CC[C@]43C)C12 (some centres unmarked) [Compound 18, 28-O-(3-Cyclopropyl-2-propynoyl)betulone] | 33.9 ± 5.5 µg/mL (≈ 63.6 µM) | – | – | 93 to 97 °C | –
10 | C=C(C)[C@@H]1CC[C@]2(COC(=O)C#Cc3ccccc3)CC[C@]3(C)C(CCC4[C@@]5(C)CCC(=O)C(C)(C)C5CC[C@]43C)C12 (some centres unmarked) [Compound 19, 28-O-Phenylpropynoylbetulone] | – | Neg | Neg | 82 to 85 °C | Cytotoxic activity IC50, CCRF/CEM [1, 6]: Neg; Cytotoxic activity IC50, T47D [3, 8]: Neg; Cytotoxic activity IC50, P388 (P388 (mouse leukemia)): Neg
11 | C=C(C)[C@@H]1CC[C@]2(COC(=O)C#CC)CC[C@]3(C)C(CCC4[C@@]5(C)CCC(=O)C(C)(C)C5CC[C@]43C)C12 (some centres unmarked) [Compound 21, 28-O-(2-Butynoyl)betulone] | 29.5 ± 5.4 µg/mL (≈ 58.2 µM) | – | – | 92 to 94 °C | –
12 | C=C(C)[C@@H]1CC[C@]2(COC(=O)OCCC)CC[C@]3(C)C(CCC4[C@@]5(C)CCC(=O)C(C)(C)C5CC[C@]43C)C12 (some centres unmarked) [Compound 22, 28-O-Propoxycarbonylbetulone] | 21.4 ± 2.1 µg/mL (≈ 40.6 µM) | – | – | 76 to 78 °C | –
13 | C=CCOC(=O)OC[C@]12CC[C@@H](C(=C)C)C1C1CCC3[C@@]4(C)CCC(=O)C(C)(C)C4CC[C@@]3(C)[C@]1(C)CC2 (some centres unmarked) [Compound 23, 28-O-Allyloxycarbonylbetulone] | 28.4 ± 1.6 µg/mL (≈ 54.1 µM) | – | – | 123 to 125 °C | –
14 | C#CCOC(=O)OC[C@]12CC[C@@H](C(=C)C)C1C1CCC3[C@@]4(C)CCC(=O)C(C)(C)C4CC[C@@]3(C)[C@]1(C)CC2 (some centres unmarked) [Compound 24, 28-O-Propargyloxycarbonylbetulone] | 11.6 ± 4.9 µg/mL (≈ 22.2 µM) | Neg | Neg | 173 to 175 °C | IC50 [1, 6]: 18.7 ± 6.6 µg/mL (≈ 35.8 µM); IC50 [3, 8]: 23.3 ± 3.5 µg/mL (≈ 44.6 µM); IC50 (P388 (mouse leukemia)): 30.3 ± 11.8 µg/mL (≈ 58 µM)
15 | C#CCCOC(=O)OC[C@]12CC[C@@H](C(=C)C)C1C1CCC3[C@@]4(C)CCC(=O)C(C)(C)C4CC[C@@]3(C)[C@]1(C)CC2 (some centres unmarked) [Compound 25, 28-O-(3-Butynyloxycarbonyl)betulone] | – | Neg | Neg | 81 to 84 °C | IC50 [1, 6]: 25.2 ± 4.6 µg/mL (≈ 46.9 µM); IC50 [3, 8]: 29.8 ± 10.7 µg/mL (≈ 55.5 µM); IC50 (P388 (mouse leukemia)): 3.8 ± 1.9 µg/mL (≈ 7.08 µM)
16 | C=C(C)[C@@H]1CC[C@]2(COC(=O)OCC#CC)CC[C@]3(C)C(CCC4[C@@]5(C)CCC(=O)C(C)(C)C5CC[C@]43C)C12 (some centres unmarked) [Compound 26, 28-O-(2-Butynyloxycarbonyl)betulone] | – | Neg | Neg | 150 to 152 °C | IC50 [1, 6]: 47.6 ± 5.7 µg/mL (≈ 88.7 µM); IC50 [3, 8]: 79.2 ± 5.2 µg/mL (≈ 148 µM); IC50 (P388 (mouse leukemia)): 18.3 ± 12.9 µg/mL (≈ 34.1 µM)
